For 1 compound, Ki results are on record in article PMC4362760, “JAK2^V617F Drives Mcl-1 Expression and Sensitizes Hematologic Cell Lines to Dual Inhibition of JAK2 and Bcl-xL” (PLoS ONE, 2015).

The experiment has as its target SGK1 (Homo sapiens, UniProt O00141). Briefly: TR-FRET Kinome SGK1. Type of experiment: binding. Conditions: SGK1 Millipore .1(Subs Conc). An excerpt: (XLS) Click here for additional data file.

Chain of SGK1 (O00141 whole entry): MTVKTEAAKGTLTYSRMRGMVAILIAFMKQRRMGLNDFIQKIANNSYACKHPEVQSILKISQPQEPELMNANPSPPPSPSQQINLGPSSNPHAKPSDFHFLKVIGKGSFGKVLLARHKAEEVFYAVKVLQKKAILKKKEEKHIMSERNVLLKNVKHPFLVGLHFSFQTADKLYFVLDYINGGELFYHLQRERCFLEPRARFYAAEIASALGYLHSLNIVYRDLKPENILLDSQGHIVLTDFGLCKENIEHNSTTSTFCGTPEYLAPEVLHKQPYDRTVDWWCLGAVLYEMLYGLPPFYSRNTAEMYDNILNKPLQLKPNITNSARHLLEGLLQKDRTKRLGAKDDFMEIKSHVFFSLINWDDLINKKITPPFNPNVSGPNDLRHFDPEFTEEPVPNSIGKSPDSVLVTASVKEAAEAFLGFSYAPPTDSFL

Turning to `CC(C)(C)c1nc2c3cc[nH]c(=O)c3c3cc(F)ccc3c2[nH]1` [JAKi-I, JAK inhibitor I], affinity was put at a Ki of 626 nM.
